Earlier results, collected in patent publication US20190022221A1 (priority 2015, published 2019).

Key:
[1] = in vivo
[2] = test system: Zaire Ebola virus (ZEBOV)
[3] = test system: Venezuelan equine encephalitis virus (VEEV)
Acinetobacter baumannii = conditions: 1.1-millimeter-thick soft agar layer, light 100 milliWatts per square centimeter

For `Oc1cccc(-c2c3nc(c(-c4cccc(O)c4)c4ccc([nH]4)c(-c4cccc(O)c4)c4nc(c(-c5cccc(O)c5)c5ccc2[nH]5)CC4)C=C3)c1` [Foscan, Tetra (m-hydroxyphenyl) chlorin], the “duration of skin photosensitivity” value [1] is given as “approximately 2 weeks”.
In the case of `[N-]=[N+]=Nc1cccc2c(I)cccc12` [INA, 1,5-iodonaphthyl azide], the “infectivity of ZEBOV after INA treatment” value [2] is listed as “completely noninfectious” and the “inactivation of virulent strain of VEEV” value [3] is listed as “efficiently inactivate”.
In the case of `CC(=O)[O-].CC(=O)[O-].CCc1c(CC)c2cc3nc(cnc4cc(OCCOCCOCCOC)c(OCCOCCOCCOC)cc4ncc4nc(cc1[n-]2)C(CCCO)=C4C)C(C)=C3CCCO.O.[Lu+3]` [Lutetium texaphryin, Motexafin lutetium], the “duration of skin photosensitivity” value [1] is given as 24 to 48 h.
For [Mn(PaPy3)(NO)](ClO4), the “clearance of bacteria from treated areas of the plates” value (Acinetobacter baumannii) is given as “effectively cleared the bacteria”.
